Source: ChEMBL document CHEMBL1129281, “Effect of linking bridge modifications on the antipsychotic profile of some phthalimide and isoindolinone derivatives” (J Med Chem, 1996)

Assays:
[1] = biological target: T1, 5-hydroxytryptamine receptor 1A (Rattus norvegicus, UniProt P19327); assay: Inhibition of [3H]8-OH-DPAT binding at serotonin 5-hydroxytryptamine 1A receptor from rat hippocampus tissue.; type: tissue-based
T1 sequence (P19327 whole entry): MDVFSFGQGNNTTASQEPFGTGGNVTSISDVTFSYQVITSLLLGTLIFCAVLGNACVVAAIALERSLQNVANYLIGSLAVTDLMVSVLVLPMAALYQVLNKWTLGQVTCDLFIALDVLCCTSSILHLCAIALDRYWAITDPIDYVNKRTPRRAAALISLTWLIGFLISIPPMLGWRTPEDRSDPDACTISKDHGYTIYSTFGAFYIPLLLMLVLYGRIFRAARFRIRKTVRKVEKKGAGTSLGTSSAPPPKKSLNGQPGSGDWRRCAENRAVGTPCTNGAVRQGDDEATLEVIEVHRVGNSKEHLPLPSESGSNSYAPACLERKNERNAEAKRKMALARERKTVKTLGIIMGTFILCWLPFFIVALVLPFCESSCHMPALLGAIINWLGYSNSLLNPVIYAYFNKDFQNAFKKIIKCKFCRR

Mus musculus = assay: In vivo inhibition of apomorphine-induced climbing response in mice.; type: functional
[2] = biological target: Serotonin 2 (5-HT2) receptor (Rattus norvegicus, UniProt P30994+P08909+P14842); assay: Inhibition of [3H]ketanserin binding at 5-hydroxytryptamine 2 receptor from rat frontal cortex.

SMILES	IC50 [1]	IC50 [2]	ED50 (Mus musculus)
O=C1c2ccccc2CN1CCCCCN1CCN(c2nsc3ccccc23)CC1	2.7 nM	2.2 nM	20 mg/kg
O=C1c2ccccc2CN1C/C=C\CN1CCN(c2nsc3ccccc23)CC1		5.5 nM	13.9 mg/kg
O=C(CCCN1CCC(O)(c2ccc(Cl)cc2)CC1)c1ccc(F)cc1 [HALOPERIDOL]			2 mg/kg
O=C1c2ccccc2CN1CCCN1CCN(c2nsc3ccccc23)CC1	390 nM	13 nM	> 25 mg/kg
O=C1c2ccccc2CN1CCN1CCN(c2nsc3ccccc23)CC1	40 nM	9.8 nM	> 25 mg/kg
O=C1c2ccccc2CN1CC#CCN1CCN(c2nsc3ccccc23)CC1		18 nM	> 25 mg/kg
O=C1c2ccccc2CN1CCCCN1CCN(c2nsc3ccccc23)CC1			6.8 mg/kg
O=C1c2ccccc2C(=O)N1CCCCN1CCN(c2nsc3ccccc23)CC1			1.1 mg/kg
O=C1c2ccccc2CN1C1CCC(N2CCN(c3nsc4ccccc34)CC2)CC1 (configuration not stated)	140 nM	120 nM	11.7 mg/kg
O=C1c2ccccc2CN1C/C=C/CN1CCN(c2nsc3ccccc23)CC1		1.7 nM	17.6 mg/kg
O=C1c2ccccc2CN1CCOCCN1CCN(c2nsc3ccccc23)CC1		1.7 nM	> 25 mg/kg

The next lines start with results.

IC50 [1]	IC50 [2]	SMILES	ED50 (Mus musculus)
54 nM	30 nM	O=C1c2ccccc2C(=O)N1CCN1CCN(c2nsc3ccccc23)CC1	> 25 mg/kg
2 nM	1.8 nM	O=C1c2ccccc2C(=O)N1CCCCCN1CCN(c2nsc3ccccc23)CC1	27 mg/kg
24 nM	3.2 nM	O=C1c2ccccc2C(=O)N1C/C=C\CN1CCN(c2nsc3ccccc23)CC1	> 25 mg/kg
19 nM	4 nM	O=C1c2ccccc2C(=O)N1CC1CC1CN1CCN(c2nsc3ccccc23)CC1 (configuration not stated)	22.9 mg/kg
4.7 nM	0.78 nM	O=C1c2ccccc2C(=O)N1C/C=C/CN1CCN(c2nsc3ccccc23)CC1	12.7 mg/kg
13 nM	6 nM	O=C1c2ccccc2C(=O)N1CCCN1CCN(c2nsc3ccccc23)CC1	> 25 mg/kg
420 nM	43 nM	O=C1c2ccccc2C(=O)N1CC#CCN1CCN(c2nsc3ccccc23)CC1	> 25 mg/kg
54 nM	5.4 nM	O=C1c2ccccc2C(=O)N1CCOCCN1CCN(c2nsc3ccccc23)CC1	> 25 mg/kg
